In ChEMBL document CHEMBL6114948, “Deep mutational scanning-guided design of a high-affinity helix-loop-helix peptide targeting G-CSF receptor” (Bioorg Med Chem Lett, 2025) one finds Kd, Stability and Ratio data, which are given here for eight compounds.

Residues, ends and D or L forms follow the SMILES beside them.

As usually defined, the Kd is a measure of binding affinity in units of concentration.

Data set [1] can be described thus: Binding affinity to recombinant G-CSFR extracellular domain (unknown origin) by surface plasmon resonance analysis. Also noted: species or system Homo sapiens. (SPR reads the build-up and loss of mass on a sensor chip optically.)
Data set [2] in a line: Stability of the compound at 20 deg C assessed as change in alpha-helical structure by CD spectra analysis. It is filed as physicochemical.
Data set [3] has as its target T1, Granulocyte colony-stimulating factor receptor (Homo sapiens) (UniProt Q99062).
T1 sequence (whole entry): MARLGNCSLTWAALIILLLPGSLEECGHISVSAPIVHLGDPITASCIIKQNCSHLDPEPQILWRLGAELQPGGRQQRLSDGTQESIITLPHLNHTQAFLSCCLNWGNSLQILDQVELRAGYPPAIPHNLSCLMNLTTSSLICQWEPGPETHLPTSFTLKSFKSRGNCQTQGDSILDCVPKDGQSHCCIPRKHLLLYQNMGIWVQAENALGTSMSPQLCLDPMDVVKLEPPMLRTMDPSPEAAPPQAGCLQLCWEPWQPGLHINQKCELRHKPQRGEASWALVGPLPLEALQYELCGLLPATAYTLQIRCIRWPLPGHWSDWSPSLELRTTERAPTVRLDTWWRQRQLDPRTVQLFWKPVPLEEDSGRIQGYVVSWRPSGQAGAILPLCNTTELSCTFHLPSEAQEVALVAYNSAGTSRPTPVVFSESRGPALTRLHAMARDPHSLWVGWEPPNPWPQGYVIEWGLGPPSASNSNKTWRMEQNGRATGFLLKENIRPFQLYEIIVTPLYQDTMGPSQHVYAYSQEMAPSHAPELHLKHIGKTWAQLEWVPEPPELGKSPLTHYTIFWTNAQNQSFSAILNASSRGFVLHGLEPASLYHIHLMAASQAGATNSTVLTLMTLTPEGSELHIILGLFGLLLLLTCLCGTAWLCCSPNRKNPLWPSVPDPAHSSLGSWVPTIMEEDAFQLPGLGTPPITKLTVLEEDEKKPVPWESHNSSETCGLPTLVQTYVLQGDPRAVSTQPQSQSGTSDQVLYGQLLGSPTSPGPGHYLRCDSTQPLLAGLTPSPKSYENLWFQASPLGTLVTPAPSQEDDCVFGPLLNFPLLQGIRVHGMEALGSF
The experiment in a line: Potency index, ratio of P8-2KA KD to test compound KD for binding affinity to recombinant G-CSFR extracellular domain (unknown origin).

`CC[C@H](C)[C@H](NC(=O)[C@H](CCC(=O)O)NC(=O)[C@H](C)NC(=O)[C@H](CCC(=O)O)NC(=O)[C@H](CC(C)C)NC(=O)[C@H](C)NC(=O)[C@H](C)NC(=O)[C@H](CC(C)C)NC(=O)[C@H](CCC(=O)O)NC(=O)[C@H](C)NC(=O)[C@H](C)NC(=O)[C@@H](N)CS)C(=O)N[C@@H](C)C(=O)N[C@@H](C)C(=O)N[C@@H](CC(C)C)C(=O)N[C@@H](CCC(=O)O)C(=O)NCC(=O)NCC(=O)NCC(=O)NCC(=O)NCC(=O)NCC(=O)NCC(=O)N[C@@H](Cc1ccc(O)cc1)C(=O)N[C@@H](CC(C)C)C(=O)N[C@@H](CCC(=O)O)C(=O)N[C@@H](CCSC)C(=O)N[C@@H](CC(C)C)C(=O)N[C@@H](CCCCN)C(=O)N[C@@H](CC(C)C)C(=O)N[C@@H](CCCCN)C(=O)N[C@@H](CC(C)C)C(=O)N[C@@H](C)C(=O)N[C@@H](CCC(=O)O)C(=O)N[C@@H](C)C(=O)N[C@@H](CCCCN)C(=O)N[C@@H](CCCNC(=N)N)C(=O)N[C@@H](Cc1ccc(O)cc1)C(=O)N[C@@H](CS)C(=O)O` (H-CAAELAALEAEIAALEGGGGGGGYLEMLKLKLAEAKRYC-OH): the Kd in data set [1] turned out to be 0.24 nM. Take `CC[C@H](C)[C@H](NC(=O)[C@H](C)NC(=O)[C@H](CC(C)C)NC(=O)[C@H](CCC(=O)O)NC(=O)[C@H](C)NC(=O)[C@H](C)NC(=O)[C@@H](N)CS)C(=O)N[C@@H](CC(C)C)C(=O)N[C@@H](CCC(=O)O)C(=O)N[C@@H](C)C(=O)N[C@@H](CCC(=O)O)C(=O)N[C@H](C(=O)N[C@@H](C)C(=O)N[C@@H](C)C(=O)N[C@@H](CC(C)C)C(=O)N[C@@H](CCC(=O)O)C(=O)NCC(=O)NCC(=O)NCC(=O)NCC(=O)NCC(=O)NCC(=O)NCC(=O)N[C@@H](CCCCN)C(=O)N[C@@H](CC(C)C)C(=O)N[C@@H](CCC(=O)O)C(=O)N[C@@H](CCSC)C(=O)N[C@@H](CC(C)C)C(=O)N[C@@H](CCCCN)C(=O)N[C@@H](CC(C)C)C(=O)N[C@@H](CCCCN)C(=O)N[C@@H](CC(C)C)C(=O)N[C@@H](C)C(=O)N[C@@H](CCC(=O)O)C(=O)N[C@@H](C)C(=O)N[C@@H](CCCCN)C(=O)N[C@@H](CCCNC(=N)N)C(=O)N[C@@H](Cc1ccc(O)cc1)C(=O)N[C@@H](CS)C(=O)O)[C@@H](C)CC` (H-CAAELAILEAEIAALEGGGGGGGKLEMLKLKLAEAKRYC-OH): the Kd in data set [1] came out at 0.89 nM.

For the compound `CC[C@H](C)[C@H](NC(=O)[C@H](C)NC(=O)[C@H](CC(C)C)NC(=O)[C@H](CCC(=O)O)NC(=O)[C@H](C)NC(=O)[C@H](C)NC(=O)[C@@H](N)CS)C(=O)N[C@@H](CC(C)C)C(=O)N[C@@H](CCC(=O)O)C(=O)N[C@@H](C)C(=O)N[C@@H](CCC(=O)O)C(=O)N[C@H](C(=O)N[C@@H](C)C(=O)N[C@@H](C)C(=O)N[C@@H](CC(C)C)C(=O)N[C@@H](CCC(=O)O)C(=O)NCC(=O)NCC(=O)NCC(=O)NCC(=O)NCC(=O)NCC(=O)NCC(=O)N[C@@H](Cc1ccc(O)cc1)C(=O)N[C@@H](CC(C)C)C(=O)N[C@@H](C)C(=O)N[C@@H](CCSC)C(=O)N[C@@H](CC(C)C)C(=O)N[C@@H](CCCCN)C(=O)N[C@@H](CC(C)C)C(=O)N[C@@H](CCCCN)C(=O)N[C@@H](CC(C)C)C(=O)N[C@@H](C)C(=O)N[C@@H](CCC(=O)O)C(=O)N[C@@H](C)C(=O)N[C@@H](CCCCN)C(=O)N[C@@H](CCCNC(=N)N)C(=O)N[C@@H](Cc1ccc(O)cc1)C(=O)N[C@@H](CS)C(=O)O)[C@@H](C)CC` (H-CAAELAILEAEIAALEGGGGGGGYLAMLKLKLAEAKRYC-OH), the Kd in data set [1] is 0.16 nM. On the same count and under the same terms, with `CC[C@H](C)[C@H](NC(=O)[C@H](C)NC(=O)[C@H](CC(C)C)NC(=O)[C@H](CCC(=O)O)NC(=O)[C@H](C)NC(=O)[C@H](C)NC(=O)[C@@H](N)CS)C(=O)N[C@@H](CC(C)C)C(=O)N[C@@H](CCC(=O)O)C(=O)N[C@@H](C)C(=O)N[C@@H](CCC(=O)O)C(=O)N[C@H](C(=O)N[C@@H](C)C(=O)N[C@@H](C)C(=O)N[C@@H](CC(C)C)C(=O)N[C@@H](CCC(=O)O)C(=O)NCC(=O)NCC(=O)NCC(=O)NCC(=O)NCC(=O)NCC(=O)NCC(=O)N[C@@H](Cc1ccc(O)cc1)C(=O)N[C@@H](CC(C)C)C(=O)N[C@@H](CCC(=O)O)C(=O)N[C@@H](CCSC)C(=O)N[C@@H](CC(C)C)C(=O)N[C@@H](CCCCN)C(=O)N[C@@H](CC(C)C)C(=O)N[C@@H](CCCCN)C(=O)N[C@@H](CC(C)C)C(=O)N[C@@H](C)C(=O)N[C@@H](CCC(=O)O)C(=O)N[C@@H](C)C(=O)N[C@@H](CCCCN)C(=O)N[C@@H](CCCNC(=N)N)C(=O)N[C@@H](Cc1ccc(O)cc1)C(=O)N[C@@H](CS)C(=O)O)[C@@H](C)CC` (H-CAAELAILEAEIAALEGGGGGGGYLEMLKLKLAEAKRYC-OH) the figure was 0.18 nM; with `CC[C@H](C)[C@H](NC(=O)[C@H](C)NC(=O)[C@H](CC(C)C)NC(=O)[C@H](CCC(=O)O)NC(=O)[C@H](C)NC(=O)[C@H](C)NC(=O)[C@@H](N)CS)C(=O)N[C@@H](CC(C)C)C(=O)N[C@@H](CCC(=O)O)C(=O)N[C@@H](C)C(=O)N[C@@H](CCC(=O)O)C(=O)N[C@H](C(=O)N[C@@H](C)C(=O)N[C@@H](C)C(=O)N[C@@H](CC(C)C)C(=O)N[C@@H](CCC(=O)O)C(=O)NCC(=O)NCC(=O)NCC(=O)NCC(=O)NCC(=O)NCC(=O)NCC(=O)N[C@@H](Cc1ccc(O)cc1)C(=O)N[C@@H](CC(C)C)C(=O)N[C@@H](CCC(=O)O)C(=O)N[C@@H](CCSC)C(=O)N[C@@H](CC(C)C)C(=O)N[C@@H](CCCCN)C(=O)N[C@@H](CC(C)C)C(=O)N[C@@H](CCCCN)C(=O)N[C@@H](CC(C)C)C(=O)N[C@@H](C)C(=O)N[C@@H](CCC(=O)O)C(=O)N[C@@H](CC(C)C)C(=O)N[C@@H](CCCCN)C(=O)N[C@@H](CCCNC(=N)N)C(=O)N[C@@H](Cc1ccc(O)cc1)C(=O)N[C@@H](CS)C(=O)O)[C@@H](C)CC` (H-CAAELAILEAEIAALEGGGGGGGYLEMLKLKLAELKRYC-OH), 2.8 nM; with `CC[C@H](C)[C@H](NC(=O)[C@H](C)NC(=O)[C@H](CC(C)C)NC(=O)[C@H](CCC(=O)O)NC(=O)[C@H](C)NC(=O)[C@H](C)NC(=O)[C@@H](N)CS)C(=O)N[C@@H](CC(C)C)C(=O)N[C@@H](CCC(=O)O)C(=O)N[C@@H](C)C(=O)N[C@@H](CCC(=O)O)C(=O)N[C@@H](CC(C)C)C(=O)N[C@@H](C)C(=O)N[C@@H](C)C(=O)N[C@@H](CC(C)C)C(=O)N[C@@H](CCC(=O)O)C(=O)NCC(=O)NCC(=O)NCC(=O)NCC(=O)NCC(=O)NCC(=O)NCC(=O)N[C@@H](Cc1ccc(O)cc1)C(=O)N[C@@H](CC(C)C)C(=O)N[C@@H](CCC(=O)O)C(=O)N[C@@H](CCSC)C(=O)N[C@@H](CC(C)C)C(=O)N[C@@H](CCCCN)C(=O)N[C@@H](CC(C)C)C(=O)N[C@@H](CCCCN)C(=O)N[C@@H](CC(C)C)C(=O)N[C@@H](C)C(=O)N[C@@H](CCC(=O)O)C(=O)N[C@@H](C)C(=O)N[C@@H](CCCCN)C(=O)N[C@@H](CCCNC(=N)N)C(=O)N[C@@H](Cc1ccc(O)cc1)C(=O)N[C@@H](CS)C(=O)O` (H-CAAELAILEAELAALEGGGGGGGYLEMLKLKLAEAKRYC-OH), 0.49 nM.

For the compound “H-AELAALEAELAALEGGGGGGGKLAMLKLKLAELKRY-OH”, in data set [1], the Kd was found to be 380 nM. The Stability result in data set [2] is “Stable”.

“H-AELAILEAEIAALEGGGGGGGYLEMLKLKLAEAKRY-OH”: the Kd in data set [1] worked out at 16 nM. Further, the Stability result in data set [2] was “Stable”. For the same compound, in data set [3], the Ratio came out at 24.
